Key:
E. coli (mc4100 strain) [1] = test: time-resolved second-harmonic scattering (SHS) of dye uptake by living bacteria, Gram-negative; assay type: cell-based
Method: (§1) Discrete colonies of E. coli (mc4100 strain) and L. rhamnosus ([…] strain) were grown on Luria Broth agar (Sigma-Aldrich) plates. Experimental samples, prepared from single colonies, were cultured (37° C., 150 rpm shaking) in Terrific Broth (TB, Sigma-Aldrich) to late-log/early stationary phase. Samples were lightly pelletized by centrifugation (ca. 1500 g for 2 min) and washed in 1×PBS to remove waste and residual TB. […] Final sample concentrations were maintained at 10 μM (MG) and 50 μM (CV). The 800 nm output from a Ti:sapphire laser (Coherent, […], oscillator only, 50 fs pulse duration, 4 nJ pulse energy, 76 MHz repetition rate, 0.4 W average power) was used as a fundamental light source. As depicted in FIG. 2A, SHS was measured while the sample circulated through a liquid flow system. To ensure collection of the SH signal solely from the sample, a long-pass filter (Schott, RG695) was placed in front of the focusing lens immediately before the sample jet. […] The signal was then detected by a photomultiplier (Hamamatsu, […]), amplified (Stanford Research Systems, SR440), and processed through a correlated photon counting system (Stanford Research Systems, SRS SR400). As a means of separating the surface specific SH response from the hyper-Rayleigh scattering (HRS) of the bulk dye solution, SHS was first measured from the dye solution in the absence of cells. […] To ensure rapid mixing of the suspension, in addition to circulating through the system, the contents of the sample reservoir were continuously stirred.

[2] = test system: L. rhamnosus (R0011 strain); test: time-resolved second-harmonic scattering (SHS) of dye uptake by living bacteria, Gram-positive; assay type: cell-based, Lactobacillus (L.) rhamnosus
Method: as §1

[3] = pH=7.2; cited from earlier work
E. coli (mc4100 strain) [4] = details: prior SHS studies, living E. coli; cited from earlier work
[5] = E. coli added ca. 10 s, 10 μM MG, 50 μM CV, FIG. 2B

SMILES | time of onset of second rise of SHS signal (dye has diffused across PM and adsorbs onto outer surface of CM) (E. coli (mc4100 strain) [1]; [5]) | time of second decay of SHS signal (dye crosses the CM) (E. coli (mc4100 strain) [1]; E. coli added ca. 10 s, 10 μM MG, FIG. 2B) [s] | MG uptake kinetics compared with E. coli ([2]; 10 μM MG, FIG. 6) | fraction of molecules in solution that are neutral [3] | ability to cross bacterial membranes (OM, CM) (E. coli (mc4100 strain) [4]) | time until which second rise of SHS signal continues to grow, then stable plateau (E. coli (mc4100 strain) [1]; E. coli added ca. 10 s, 50 μM CV, FIG. 2B) | late time SHS signal relative to HRS baseline (E. coli (mc4100 strain) [1]; Gram-negative cells, 50 μM CV, FIG. 4) | fraction of CV from the bulk extracellular solution drawn into the Gram-positive cells ([2]; 50 μM CV) | reduction of the HRS background ([2]; 50 μM CV, after fast transport event, observation time 2000+ s, FIG. 4) [%] | removal of CV from the bulk solution ([2]; 50 μM CV, inferred from reduction of HRS background) | late time SHS signal relative to HRS baseline ([2]; Gram-positive cells, 50 μM CV, FIG. 4) | second rise of SHS signal (arrival at CM) ([2]; within the 2000+ s observation time, also at higher concentrations) | fraction of molecules that are cationic [3] [%]
CN(C)c1ccc(C(=C2C=CC(=[N+](C)C)C=C2)c2ccccc2)cc1 [MG, malachite green] | around 25 s | ~120 | nearly identical transport curves | more than 50% | cross both the OM and CM | – | – | – | – | – | – | – | –
CN(C)c1ccc(C(=C2C=CC(=[N+](C)C)C=C2)c2ccc(N(C)C)cc2)cc1 [CV, crystal violet] | roughly 70 s | – | – | – | unable to cross the bacterial CM | about 400 s | positive response | ca. 30% | 30 | ca. 15 μM | negative response | no second rise of SHS signal is ever observed | 100

Reference: US12578271B2, “Gram-stain differentiation with nonlinear light scattering” (Temple University—Of The Commonwealth System of Higher …, priority 2020, dated 2026)
